Measured values published in US20090304692A1, “TRIAZINE COMPOUNDS AS PI3 KINASE AND MTOR INHIBITORS” (Wyeth, priority 2008, published 2009).
Where two headings read alike, the source gives them in different places.

Assays:
PI3K-γ = PI3K-γ (Homo sapiens, UniProt P48736); assay: PI3K-gamma fluorescence polarization assay
Human mTOR (FLAG-TOR) = Human mTOR (FLAG-TOR) (Homo sapiens, UniProt P42345); assay: mTOR kinase assay (DELFIA format, purified enzyme); format: biochemical; settings: read-out: IC50 mTOR
PI3K-α = PI3K-α (Homo sapiens, UniProt P42336); assay: PI3K-alpha fluorescence polarization assay; settings: read-out: IC50 PI3Kα
Chain of PI3K-α (P42336 whole entry, species assumed): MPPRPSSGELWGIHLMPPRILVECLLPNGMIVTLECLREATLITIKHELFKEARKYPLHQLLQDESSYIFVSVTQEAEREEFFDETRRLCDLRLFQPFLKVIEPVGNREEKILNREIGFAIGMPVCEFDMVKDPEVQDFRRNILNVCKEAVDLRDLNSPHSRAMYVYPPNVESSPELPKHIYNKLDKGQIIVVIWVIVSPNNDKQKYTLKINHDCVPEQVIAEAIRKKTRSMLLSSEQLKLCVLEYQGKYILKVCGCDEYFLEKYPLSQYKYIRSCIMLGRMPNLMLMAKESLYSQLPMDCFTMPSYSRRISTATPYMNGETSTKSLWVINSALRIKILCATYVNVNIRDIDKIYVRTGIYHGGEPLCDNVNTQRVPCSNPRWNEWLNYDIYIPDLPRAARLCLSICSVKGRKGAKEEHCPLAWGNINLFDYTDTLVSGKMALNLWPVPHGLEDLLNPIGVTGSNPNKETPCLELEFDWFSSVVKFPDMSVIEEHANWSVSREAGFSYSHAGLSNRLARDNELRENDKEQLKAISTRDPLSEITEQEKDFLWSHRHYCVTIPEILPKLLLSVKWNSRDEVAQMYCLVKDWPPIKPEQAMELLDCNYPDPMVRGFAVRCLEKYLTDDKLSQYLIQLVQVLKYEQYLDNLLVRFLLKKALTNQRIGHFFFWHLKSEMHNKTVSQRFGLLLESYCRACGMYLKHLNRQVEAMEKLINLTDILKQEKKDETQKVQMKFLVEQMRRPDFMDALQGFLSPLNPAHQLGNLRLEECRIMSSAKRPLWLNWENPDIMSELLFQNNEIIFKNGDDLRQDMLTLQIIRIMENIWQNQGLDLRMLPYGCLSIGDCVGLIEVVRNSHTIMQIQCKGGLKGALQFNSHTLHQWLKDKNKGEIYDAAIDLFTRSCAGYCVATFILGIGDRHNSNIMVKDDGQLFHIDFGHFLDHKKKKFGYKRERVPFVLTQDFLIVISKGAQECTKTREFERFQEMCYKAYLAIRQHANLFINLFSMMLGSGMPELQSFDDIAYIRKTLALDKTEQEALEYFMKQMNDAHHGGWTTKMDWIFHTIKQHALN
Chain of PI3K-α (P27986 whole entry partner, species assumed): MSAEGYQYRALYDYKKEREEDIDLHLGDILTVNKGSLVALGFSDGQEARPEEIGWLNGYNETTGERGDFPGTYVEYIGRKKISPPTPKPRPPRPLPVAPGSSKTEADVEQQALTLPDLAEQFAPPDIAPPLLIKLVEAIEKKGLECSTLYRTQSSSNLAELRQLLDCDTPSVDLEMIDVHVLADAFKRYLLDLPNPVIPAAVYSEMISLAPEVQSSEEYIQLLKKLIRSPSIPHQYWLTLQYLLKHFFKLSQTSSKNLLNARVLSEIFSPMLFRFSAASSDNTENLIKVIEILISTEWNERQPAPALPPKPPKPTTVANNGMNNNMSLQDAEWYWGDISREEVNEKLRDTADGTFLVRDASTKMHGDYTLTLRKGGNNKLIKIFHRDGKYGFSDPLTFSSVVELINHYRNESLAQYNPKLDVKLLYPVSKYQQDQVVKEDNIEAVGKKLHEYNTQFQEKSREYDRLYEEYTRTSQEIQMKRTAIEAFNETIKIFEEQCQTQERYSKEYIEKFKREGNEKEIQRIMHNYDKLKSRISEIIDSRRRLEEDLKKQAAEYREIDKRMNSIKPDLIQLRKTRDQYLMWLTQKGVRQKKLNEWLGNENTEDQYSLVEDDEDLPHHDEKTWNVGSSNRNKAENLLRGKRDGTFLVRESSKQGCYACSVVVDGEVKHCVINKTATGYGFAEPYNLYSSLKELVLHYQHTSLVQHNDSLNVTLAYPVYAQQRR

Chain of Human mTOR (FLAG-TOR) (P42345 1360-2549 limits assumed): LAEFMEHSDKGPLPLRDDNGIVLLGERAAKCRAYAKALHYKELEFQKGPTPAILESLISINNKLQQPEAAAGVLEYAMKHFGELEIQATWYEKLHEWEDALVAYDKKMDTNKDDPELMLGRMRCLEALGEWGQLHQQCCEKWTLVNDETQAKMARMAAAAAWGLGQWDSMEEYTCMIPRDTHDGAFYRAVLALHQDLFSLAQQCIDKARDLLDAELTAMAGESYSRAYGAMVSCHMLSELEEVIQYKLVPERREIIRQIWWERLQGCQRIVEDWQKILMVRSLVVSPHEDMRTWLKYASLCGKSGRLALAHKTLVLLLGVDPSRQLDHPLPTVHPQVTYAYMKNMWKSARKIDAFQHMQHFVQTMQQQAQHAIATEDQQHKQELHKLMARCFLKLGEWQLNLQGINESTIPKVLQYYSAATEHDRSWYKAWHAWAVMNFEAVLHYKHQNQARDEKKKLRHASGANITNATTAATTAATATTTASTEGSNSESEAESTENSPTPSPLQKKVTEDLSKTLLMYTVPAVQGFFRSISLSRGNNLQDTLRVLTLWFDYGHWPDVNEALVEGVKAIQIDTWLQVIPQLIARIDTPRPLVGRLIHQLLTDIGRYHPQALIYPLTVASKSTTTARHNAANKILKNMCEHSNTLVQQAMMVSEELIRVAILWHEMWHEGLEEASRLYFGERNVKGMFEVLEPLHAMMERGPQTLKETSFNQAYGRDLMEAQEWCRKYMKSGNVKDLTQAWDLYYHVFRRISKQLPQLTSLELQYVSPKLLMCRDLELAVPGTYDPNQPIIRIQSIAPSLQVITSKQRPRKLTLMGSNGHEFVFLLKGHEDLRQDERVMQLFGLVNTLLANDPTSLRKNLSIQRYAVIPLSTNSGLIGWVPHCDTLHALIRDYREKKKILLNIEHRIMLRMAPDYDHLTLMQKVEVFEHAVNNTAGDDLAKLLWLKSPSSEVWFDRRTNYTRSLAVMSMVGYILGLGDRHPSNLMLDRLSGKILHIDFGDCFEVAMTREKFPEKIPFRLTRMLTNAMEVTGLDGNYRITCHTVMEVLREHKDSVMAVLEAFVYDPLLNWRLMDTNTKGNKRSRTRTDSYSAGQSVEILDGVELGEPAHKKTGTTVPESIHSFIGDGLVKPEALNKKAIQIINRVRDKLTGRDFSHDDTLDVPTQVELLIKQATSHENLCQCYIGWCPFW
Chain of PI3K-γ (P48736 whole entry, species assumed): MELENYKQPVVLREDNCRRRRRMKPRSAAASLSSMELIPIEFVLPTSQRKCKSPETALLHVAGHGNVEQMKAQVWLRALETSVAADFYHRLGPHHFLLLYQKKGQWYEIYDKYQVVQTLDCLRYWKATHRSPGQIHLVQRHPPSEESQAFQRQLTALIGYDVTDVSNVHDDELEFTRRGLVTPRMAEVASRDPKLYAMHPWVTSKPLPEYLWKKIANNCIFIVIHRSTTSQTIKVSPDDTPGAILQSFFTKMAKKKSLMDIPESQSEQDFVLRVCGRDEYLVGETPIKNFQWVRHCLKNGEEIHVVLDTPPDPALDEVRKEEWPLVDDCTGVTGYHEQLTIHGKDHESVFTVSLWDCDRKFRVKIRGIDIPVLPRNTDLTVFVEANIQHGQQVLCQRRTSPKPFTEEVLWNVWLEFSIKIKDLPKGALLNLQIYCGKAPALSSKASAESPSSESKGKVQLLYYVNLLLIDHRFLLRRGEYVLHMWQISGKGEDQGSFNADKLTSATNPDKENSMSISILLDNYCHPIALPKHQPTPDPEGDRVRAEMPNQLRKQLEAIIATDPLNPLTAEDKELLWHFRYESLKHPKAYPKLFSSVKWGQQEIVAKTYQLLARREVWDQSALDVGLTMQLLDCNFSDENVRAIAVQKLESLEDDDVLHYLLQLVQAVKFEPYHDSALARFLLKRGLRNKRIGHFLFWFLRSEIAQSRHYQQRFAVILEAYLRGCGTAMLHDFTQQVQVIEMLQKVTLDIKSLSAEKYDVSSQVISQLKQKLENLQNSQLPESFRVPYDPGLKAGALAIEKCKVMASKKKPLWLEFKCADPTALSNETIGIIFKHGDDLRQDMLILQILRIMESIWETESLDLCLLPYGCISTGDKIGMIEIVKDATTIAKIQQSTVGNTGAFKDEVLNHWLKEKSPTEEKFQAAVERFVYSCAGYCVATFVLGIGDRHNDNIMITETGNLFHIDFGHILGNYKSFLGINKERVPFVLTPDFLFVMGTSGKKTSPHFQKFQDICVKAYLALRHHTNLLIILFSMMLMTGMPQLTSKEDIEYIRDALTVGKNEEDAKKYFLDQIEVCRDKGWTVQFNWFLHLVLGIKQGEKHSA

Row | Compound | IC50 (PI3K-γ; read-out: IC50 PI3Kγ) | IC50 (Human mTOR (FLAG-TOR)) | IC50 (PI3K-α) | IC50 (PI3K-γ)
1 | COC(=O)c1ccc(NC(=O)Nc2ccc(-c3nc(N4CCOCC4)nc(N4CCC(NC(C)=O)CC4)n3)cc2)cc1 [Example 656, methyl 4-{[(4-{4-[4-(acetylamino)piperidin-1-yl]-6-morpholin-4-yl-1,3,5-triazin-2-yl}phenyl)carbamoyl]amino}benzoate] | 0.651 µM | 0.019 µM | 0.073 µM | –
2 | CC(C)N1CCCN(c2nc(-c3ccc(NC(=O)Nc4ccc(C(=O)N5CCN(C)CC5)cc4)cc3)nc(N3CCOCC3)n2)CC1 [Example 657, 1-(4-{4-[4-(1-methylethyl)-1,4-diazepan-1-yl]-6-morpholin-4-yl-1,3,5-triazin-2-yl}phenyl)-3-{4-[(4-methylpiperazin-1-yl)carbonyl]phenyl}urea] | 0.128 µM | 0.385 µM | 0.0115 µM | –
3 | CC(=O)NC1CCN(c2nc(-c3ccc(NC(=O)Nc4ccncc4)cc3)nc(N3CCOCC3)n2)CC1 [Example 658, N-[1-(4-morpholin-4-yl-6-{4-[(pyridin-4-ylcarbamoyl)amino]phenyl}-1,3,5-triazin-2-yl)piperidin-4-yl]acetamide] | 0.265 µM | 0.02 µM | 0.0415 µM | –
4 | CC(=O)NC1CCN(c2nc(-c3ccc(NC(=O)Nc4ccc(C(=O)O)cc4)cc3)nc(N3CCOCC3)n2)CC1 [Example 659, 4-{[(4-{4-[4-(acetylamino)piperidin-1-yl]-6-morpholin-4-yl-1,3,5-triazin-2-yl}phenyl)carbamoyl]amino}benzoic acid] | – | 0.72 µM | 3.62 µM | ≥ 10 µM
5 | CC(C)N1CCCN(c2nc(-c3ccc(NC(=O)Nc4ccc(C(=O)NCCN(C)C)cc4)cc3)nc(N3CCOCC3)n2)CC1 [Example 660, N-[2-(dimethylamino)ethyl]-4-{[(4-{4-[4-(1-methylethyl)-1,4-diazepan-1-yl]-6-morpholin-4-yl-1,3,5-triazin-2-yl}phenyl)carbamoyl]amino}benzamide] | 0.169 µM | 0.305 µM | 0.0075 µM | –
6 | CC(=O)NC1CCN(C(=O)c2ccc(NC(=O)Nc3ccc(-c4nc(N5CCOCC5)nc(N5CCCN(C(C)C)CC5)n4)cc3)cc2)CC1 [Example 661, N-{1-[(4-{[(4-{4-[4-(1-methylethyl)-1,4-diazepan-1-yl]-6-morpholin-4-yl-1,3,5-triazin-2-yl}phenyl)carbamoyl]amino}phenyl)carbonyl]piperidin-4-yl}acetamide] | 0.462 µM | 0.58 µM | 0.0565 µM | –
7 | CCN1CCN(C(=O)c2ccc(NC(=O)Nc3ccc(-c4nc(N5CCOCC5)nc(N5CCCN(C(C)C)CC5)n4)cc3)cc2)CC1 [Example 662, 1-{4-[(4-ethylpiperazin-1-yl)carbonyl]phenyl}-3-(4-{4-[4-(1-methylethyl)-1,4-diazepan-1-yl]-6-morpholin-4-yl-1,3,5-triazin-2-yl}phenyl)urea] | 0.197 µM | 0.77 µM | 0.0343 µM | –
8 | CC(C)N1CCN(C(=O)c2ccc(NC(=O)Nc3ccc(-c4nc(N5CCOCC5)nc(N5CCCN(C(C)C)CC5)n4)cc3)cc2)CC1 [Example 663, 1-(4-{4-[4-(1-methylethyl)-1,4-diazepan-1-yl]-6-morpholin-4-yl-1,3,5-triazin-2-yl}phenyl)-3-(4-{[4-(1-methylethyl)piperazin-1-yl]carbonyl}phenyl)urea] | 0.296 µM | 0.59 µM | 0.0473 µM | –
9 | CCCCN1CCN(C(=O)c2ccc(NC(=O)Nc3ccc(-c4nc(N5CCOCC5)nc(N5CCCN(C(C)C)CC5)n4)cc3)cc2)CC1 [Example 665, 1-{4-[(4-butylpiperazin-1-yl)carbonyl]phenyl}-3-(4-{4-[4-(1-methylethyl)-1,4-diazepan-1-yl]-6-morpholin-4-yl-1,3,5-triazin-2-yl}phenyl)urea] | 0.284 µM | 0.445 µM | 0.071 µM | –
10 | COC(=O)c1ccc(NC(=O)Nc2ccc(-c3nc(N4CCOCC4)nc(N4C5CCC4COC5)n3)cc2)cc1 [Example 693, methyl 4-[({4-[4-morpholin-4-yl-6-(3-oxa-8-azabicyclo[3.2.1]oct-8-yl)-1,3,5-triazin-2-yl]phenyl}carbamoyl)amino]benzoate] | 0.289 µM | 0.00135 µM | 0.069 µM | –
11 | Cc1cc(NC(=O)Nc2ccc(-c3nc(N4CCOCC4)nc(N4CC5CCC4CO5)n3)cc2)n(C)n1 (stereo not drawn) [Example 808, 1-(1,3-dimethyl-1H-pyrazol-5-yl)-3-{4-[4-morpholin-4-yl-6-(2-oxa-5-azabicyclo[2.2.2]oct-5-yl)-1,3,5-triazin-2-yl]phenyl}urea] | 1.26 µM | 0.26 µM | 0.381 µM | –

Second part, the molecule after the results:

Row | IC50 (PI3K-γ; read-out: IC50 PI3Kγ) | IC50 (Human mTOR (FLAG-TOR)) | IC50 (PI3K-α) | IC50 (PI3K-γ) | Compound
12 | 0.034 µM | 0.007 µM | 0.0041 µM | – | CCS(=O)(=O)N1CCN(c2nc(-c3ccc(NC(=O)Nc4ccc(C(=O)NCCCN(C)C)cc4)cc3)nc(N3CCOCC3)n2)CC1 [Example 653, N-[3-(dimethylamino)propyl]-4-{[(4-{4-[4-(ethylsulfonyl)piperazin-1-yl]-6-morpholin-4-yl-1,3,5-triazin-2-yl}phenyl)carbamoyl]amino}benzamide]
13 | 0.07 µM | 0.008 µM | 0.006 µM | – | CCS(=O)(=O)N1CCN(c2nc(-c3ccc(NC(=O)Nc4ccc(C(=O)NCCN(C)C)cc4)cc3)nc(N3CCOCC3)n2)CC1 [Example 654, N-[2-(dimethylamino)ethyl]-4-{[(4-{4-[4-(ethylsulfonyl)piperazin-1-yl]-6-morpholin-4-yl-1,3,5-triazin-2-yl}phenyl)carbamoyl]amino}benzamide]
14 | 0.746 µM | 0.625 µM | 0.0915 µM | – | CC(C)N1CCCN(c2nc(-c3ccc(NC(=O)Nc4ccc(C(=O)O)cc4)cc3)nc(N3CCOCC3)n2)CC1 [Example 655, 4-{[(4-{4-[4-(1-methylethyl)-1,4-diazepan-1-yl]-6-morpholin-4-yl-1,3,5-triazin-2-yl}phenyl)carbamoyl]amino}benzoic acid]
15 | 0.252 µM | 0.11 µM | 0.124 µM | – | CN1CCN(c2ccc(NC(=O)Nc3ccc(-c4nc(NS(=O)(=O)c5ccccc5)nc(N5CCOCC5)n4)cc3)cc2)CC1 [Example 782, N-{4-[4-({[4-(4-methylpiperazin-1-yl)phenyl]carbamoyl}amino)phenyl]-6-morpholin-4-yl-1,3,5-triazin-2-yl}benzenesulfonamide]
16 | 0.736 µM | 0.295 µM | 0.346 µM | – | CN(C)CCOc1ccc(NC(=O)Nc2ccc(-c3nc(NS(=O)(=O)c4ccccc4)nc(N4CCOCC4)n3)cc2)cc1 [Example 783, N-(4-{4-[({4-[2-(dimethylamino)ethoxy]phenyl}carbamoyl)amino]phenyl}-6-morpholin-4-yl-1,3,5-triazin-2-yl)benzenesulfonamide]
17 | 1.16 µM | 0.059 µM | 0.87 µM | – | COC(=O)c1ccc(NC(=O)Nc2ccc(-c3nc(NS(=O)(=O)c4ccccc4)nc(N4CCOCC4)n3)cc2)cc1 [Example 789, methyl 4-{[(4-{4-morpholin-4-yl-6-[(phenylsulfonyl)amino]-1,3,5-triazin-2-yl}phenyl)carbamoyl]amino}benzoate]
18 | 0.593 µM | 0.065 µM | 0.244 µM | – | O=C(Nc1ccc(C(=O)O)cc1)Nc1ccc(-c2nc(NS(=O)(=O)c3ccccc3)nc(N3CCOCC3)n2)cc1 [Example 790, 4-{[(4-{4-morpholin-4-yl-6-[(phenylsulfonyl)amino]-1,3,5-triazin-2-yl}phenyl)carbamoyl]amino}benzoic acid]
